Experimental data reported in patent US10407382B2, “EP4 agonists as therapeutic compounds” (ALLERGAN, INC., priority 2014, dated 2019).
pEC50, pKi: −log10 of the molar value.

Key:
[1] = molecular target: T1, EP4 (Homo sapiens, UniProt P35408); assay: cAMP assay, EP4; assay type: cell-based; parameters: expressed in transfected cells; host or cells: HEK-EBNA cells; conditions: HEK-EBNA cells expressing EP4
Protocol: A 384-well drug plate was prepared to contain 6 test compounds, PGE2 and cAMP in 16 serial dilutions in triplicate, using a Biomek station. HEK-EBNA cells expressing a target PG receptor subtype (EP2 or EP4) were suspended in a stimulation buffer (HBSS, 0.1% BSA, 0.5 mM IBMX and 5 mM HEPES, pH 7.4) in a density of 10^4 cells/5 μL. The reaction was initiated by mixing 5 μL drug dilutions with 5 μL of HEK-EBNA cells in a well, carried out for 30 min at room temperature, and followed by the addition of 5 μL anti-cAMP acceptor beads in the control buffer with Tween-20 (25 mM NaCl, 0.03% Tween-20, 5 mM HEPES, pH 7.4). After 30 min in the dark at room temperature, the mixtures were incubated with 15 μL biotinylated-cAMP/strepavidin donor beads in Lysis/Detection buffer (0.1% BSA, 0.3% Tween-20 and 5 mM HEPES, pH 7.4) for 45 min at the room temperature. Fluorescence changes were read using a Fusion-alpha HT microplate reader.

[2] = molecular target: T1, EP4; assay: Radioligand binding, EP4; parameters: expressed in transfected cells; membrane fraction; conditions: [3H]PGE2 competition
Protocol: (§1) Data from running binding and activity studies on the compounds of the invention were carried out as described in U.S. Pat. No. 7,427,685, the contents of which are incorporated herein by reference.
(§2) Cells Stably Expressing EP1, EP2, EP4, and FP Receptors
(§3) HEK-293 cells stably expressing the human or feline FP receptor, or EP1, EP2, or EP4 receptors were washed with TME buffer, scraped from the bottom of the flasks, and homogenized for 30 sec using a Brinkman PT 10/35 polytron. TME buffer was added to achieve a final 40 ml volume in the centrifuge tubes (the composition of TME is 100 mM TRIS base, 20 mM MgCl2, […]; ION HCl is added to achieve a pH of 7.4).
(§4) The cell homogenate was centrifuged at 19000 rpm for 20 min at 4° C. using a Beckman Ti-60 rotor. The resultant pellet was resuspended in TME buffer to give a final 1 mg/ml protein concentration, as determined by Biorad assay. Radioligand binding competition assays vs. [^3H-]17-phenyl PGF2α (5 nM) were performed in a 100 μl volume for 60 min. Binding reactions were started by adding plasma membrane fraction. The reaction was terminated by the addition of 4 ml ice-cold TRIS-HCl buffer and rapid filtration through glass fiber GF/B filters using a Brandel cell harvester. The filters were washed 3 times with ice-cold buffer and oven dried for one hour.
(§5) [^3H-] PGE2 (specific activity 180 Ci mmol) was used as the radio ligand for EP receptors. [^3H] 17-phenyl PGF2α was employed for FP receptor binding studies. Binding studies employing EP1, EP2, EP4 and FP receptors were performed in duplicate in at least three separate experiments. A 200 μl assay volume was used. Incubations were for 60 min at 25° C. and were terminated by the addition of 4 ml of ice-cold 50 mM TRIS-HCl, followed by rapid filtration through Whatman GF/B filters and three additional 4 ml washes in a cell harvester (Brandel). Competition studies were performed using a final concentration of 5 nM [^3H]-PGE2, or 5 nM [^3H] 17-phenyl PGF2α and non-specific binding determined with 10^−5M of unlabeled PGE2, or 17-phenyl PGF2α, according to receptor subtype studied.

[3] = molecular target: EP2 (Homo sapiens, UniProt P43116); assay: Ki competition binding, EP2; parameters: expressed in transfected cells; conditions: [3H]PGE2 competition; NA = no activity
Protocol: as §1
Competition binding experiments were performed in a medium containing Hank's balanced salt solution, Hepes 20 mM, pH 7.3, membranes (˜60 μg protein) or 2×10^5 cells from HEK 293 cells stably expressing human EP2 receptors, [^3H]PGE2 (10 nM) and various concentrations of test compounds in a total volume of 300 μl. Reaction mixtures were incubated at 23° C. for 60 min, and were filtered over Whatman GF IB filters under vacuum. Filters were washed three times with 5 ml ice-cold buffer containing 50 mM Tris/HCl (PH 7.3). Non-specific binding was estimated in the presence of excess unlabeled PGE2 (10 μM). Binding data fitted to the binding model for a single class of binding sites, using nonlinear regression analysis. IC50 values thus obtained were converted to Ki using the equation of Ki=(IC50/(1+[L]/KD) where [L] represents PGE2 concentration (10 nM) and KD the dissociation constant for [^3H]PGE2 at human EP2 receptors (40 nM).
as §2, §3, §4, §5

EP2, sequence (P43116 whole entry): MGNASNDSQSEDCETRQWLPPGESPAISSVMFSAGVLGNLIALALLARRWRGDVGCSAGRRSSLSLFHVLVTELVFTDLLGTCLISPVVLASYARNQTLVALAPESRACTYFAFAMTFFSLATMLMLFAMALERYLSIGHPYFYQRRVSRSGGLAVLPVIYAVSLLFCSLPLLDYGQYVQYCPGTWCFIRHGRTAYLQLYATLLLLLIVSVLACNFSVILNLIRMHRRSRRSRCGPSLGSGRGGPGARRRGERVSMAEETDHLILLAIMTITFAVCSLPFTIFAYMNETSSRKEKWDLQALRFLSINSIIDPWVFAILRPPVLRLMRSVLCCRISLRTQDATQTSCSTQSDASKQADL
T1 sequence (P35408 whole entry): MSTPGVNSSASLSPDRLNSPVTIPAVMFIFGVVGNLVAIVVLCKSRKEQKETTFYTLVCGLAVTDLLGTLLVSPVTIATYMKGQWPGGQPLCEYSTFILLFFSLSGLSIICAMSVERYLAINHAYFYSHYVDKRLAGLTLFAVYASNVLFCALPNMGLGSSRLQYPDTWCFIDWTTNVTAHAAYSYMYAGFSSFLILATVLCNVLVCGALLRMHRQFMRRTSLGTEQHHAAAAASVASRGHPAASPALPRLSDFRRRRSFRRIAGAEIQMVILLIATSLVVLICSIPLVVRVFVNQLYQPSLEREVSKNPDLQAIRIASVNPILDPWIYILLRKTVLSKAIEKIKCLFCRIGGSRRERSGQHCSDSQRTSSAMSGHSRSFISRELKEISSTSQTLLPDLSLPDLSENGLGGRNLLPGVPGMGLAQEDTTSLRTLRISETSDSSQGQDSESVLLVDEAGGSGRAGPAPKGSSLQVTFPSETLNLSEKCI

`COc1ccc(CC2=C(C(=O)NCc3ccc(C(=O)O)cc3)CCCC2)cc1OC` [Example 21, 4-((2-(3,4-Dimethoxybenzyl)cyclohex-1-enecarboxamido)methyl)benzoic Acid] was tested, and the pEC50 [1] was less than 5.00 and the pKi [2] was 8.40.
`COc1ccc(CC2CCCCC2C(=O)NCc2ccc(C(=O)O)cc2)cc1` (single isomer, unassigned) [Example 35, 4-((2-(4-Methoxybenzyl)cyclohexanecarboxamido)methyl)benzoic Acid] was tested, and the pEC50 [1] was less than 5.00, the pKi [2] was 7.07 and the pKi [3] was less than 5.00.
In the case of `COc1ccc(CC2CCCCC2C(=O)NCc2ccc(C(=O)O)cc2)cc1` (single isomer, unassigned) [Example 34, 4-((2-(4-Methoxybenzyl)cyclohexanecarboxamido)methyl)benzoic Acid], the pEC50 [1] was less than 5.00, the pKi [2] was 7.36 and the pKi [3] was less than 5.00.
Work on `COc1cccc(CC2CCCCC2C(=O)NCc2ccc(C(=O)O)cc2)c1` (single isomer, unassigned) [Example 28, 4-((2-(3-Methoxybenzyl)cyclohexanecarboxamido)methyl)benzoic Acid] yielded a pEC50 [1] of less than 5.00, a pKi [2] of 8.40 and a pKi [3] of 5.63.
With `COc1ccccc1CC1=C(C(=O)NCc2ccc(C(=O)O)cc2)CCCC1` [Example 30, 4-((2-(2-Methoxybenzyl)cyclohex-1-enecarboxamido)methyl)benzoic Acid] the pEC50 [1] was less than 5.00, the pKi [2] was 8.22 and the pKi [3] was 6.66.
For `COc1cccc(CC2=C(C(=O)NCc3ccc(C(=O)O)cc3)CCCC2)c1OC` [Example 14, 4-((2-(2,3-Dimethoxybenzyl)cyclohex-1-enecarboxamido)methyl)benzoic Acid], the pEC50 [1] was less than 5.00, the pKi [2] was 7.35 and the pKi [3] was 5.92.
For `COc1ccccc1CC1CCCCC1C(=O)NCc1ccc(C(=O)O)cc1` (single isomer, unassigned) [Example 32, 4-((2-(2-Methoxybenzyl)cyclohexanecarboxamido)methyl)benzoic Acid], the pEC50 [1] was less than 5.00, the pKi [2] was 8.15 and the pKi [3] was 5.88.
`COc1ccc(OC)c(CC2CCCCC2C(=O)NCc2ccc(C(=O)O)cc2)c1` (single isomer, unassigned) [Example 19, 4-((2-(2,5-Dimethoxybenzyl)cyclohexanecarboxamido)methyl)benzoic Acid] gave a pEC50 [1] of 9.70, a pKi [2] of 8.70 and a pKi [3] of 6.41.
In the case of `COc1ccc(OC)c(CC2=C(C(=O)NCc3ccc(C(=O)O)cc3)CCCC2)c1` [Example 17, 4-((2-(2,5-Dimethoxybenzyl)cyclohex-1-enecarboxamido)methyl)benzoic Acid], the pEC50 [1] was less than 5.00, the pKi [2] was 8.10 and the pKi [3] was 6.39.
`COc1ccc(CC2CCCCC2C(=O)NCc2ccc(C(=O)O)cc2)cc1OC` (single isomer, unassigned) [Example 22, 4-((2-(3,4-Dimethoxybenzyl)cyclohexanecarboxamido)methyl)benzoic Acid] showed a pEC50 [1] of less than 5.00 and a pKi [2] of 8.40.
`COc1cc(/C=C2\[C@@H]3CC[C@@H](C3)[C@H]2C(=O)NCc2ccc(C(=O)O)cc2)cc(OC)c1` (racemic) [Example 37, 4-(((1S,2R,4R,E)-3-(3,5-Dimethoxybenzylidene)bicyclo[2.2.1]heptane-2-carboxamido)methyl)benzoic Acid] was tested, and the pEC50 [1] was less than 5.00 and the pKi [2] was 6.49.
Work on `COc1ccc(CC2=C(C(=O)NCc3ccc(C(=O)O)cc3)CCCC2)cc1` [Example 33, 4-((2-(4-Methoxybenzyl)cyclohex-1-enecarboxamido)methyl)benzoic Acid] yielded a pEC50 [1] of less than 5.00, a pKi [2] of 9.00 and a pKi [3] of 5.94.
In the case of `COc1cc(CC2CCCC2C(=O)NCc2ccc(C(=O)O)cc2)cc(OC)c1` (single isomer, unassigned) [Example 1, 4-((2-(3,5-Dimethoxybenzyl)cyclopentanecarboxamido)methyl)benzoic Acid], the “EP4 data cAMP EC50” value [1] was “weak”, the pKi [2] was 7.52 and the pKi [3] was 5.21.
`O=C(O)c1ccc(CNC(=O)C2CCCCC2Cc2ccccc2)cc1` (single isomer, unassigned) [Example 25, 4-((2-Benzylcyclohexanecarboxamido)methyl)benzoic Acid] was tested, and the pEC50 [1] was less than 5.00, the pKi [2] was 7.24 and the pKi [3] was 5.31.
`COc1cccc(CC2CCCCC2C(=O)NCc2ccc(C(=O)O)cc2)c1OC` (single isomer, unassigned) [Example 15, 4-((2-(2,3-Dimethoxybenzyl)cyclohexanecarboxamido)methyl)benzoic Acid] was tested, and the pEC50 [1] was less than 5.00, the pKi [2] was 7.77 and the pKi [3] was 5.13.
In the case of `COc1cc(CC2C3CCC(C3)C2C(=O)NCc2ccc(C(=O)O)cc2)cc(OC)c1` (racemic) [Example 39, 4-((3-(3,5-Dimethoxybenzyl)bicyclo[2.2.1]heptane-2-carboxamido)methyl)benzoic Acid], the pEC50 [1] was less than 5.00 and the pKi [2] was 7.11.
`COc1cccc(CC2CCCCC2C(=O)NCc2ccc(C(=O)O)cc2)c1` (single isomer, unassigned) [Example 29, 4-((2-(3-Methoxybenzyl)cyclohexanecarboxamido)methyl)benzoic Acid] was tested, and the pEC50 [1] was 8.40, the pKi [2] was 7.72 and the pKi [3] was 5.59.
For `O=C(O)c1ccc(CNC(=O)C2CCCCC2Cc2ccccc2)cc1` (single isomer, unassigned) [Example 26, 4-((2-Benzylcyclohexanecarboxamido)methyl)benzoic Acid], the pEC50 [1] was 7.46, the pKi [2] was 6.94 and the pKi [3] was 5.53.
For `COc1cccc(CC2=C(C(=O)NCc3ccc(C(=O)O)cc3)CCCC2)c1` [Example 27, 4-((2-(3-Methoxybenzyl)cyclohex-1-enecarboxamido)methyl)benzoic Acid], the pEC50 [1] was less than 5.00, the pKi [2] was 8.70 and the pKi [3] was 6.86.
`COc1cc(C/C2=C(\C(=O)NCc3ccc(C(=O)O)cc3)CCCCCC2)cc(OC)c1` [Example 20, 4-((2-(3,5-Dimethoxybenzyl)cyclooct-1-enecarboxamido)methyl)benzoic Acid] showed a pEC50 [1] of less than 5.00, a pKi [2] of 9.70 and a pKi [3] of less than 5.00.
`COc1cc(CC2=C(C(=O)NCc3ccc(C(=O)O)cc3)C3CCC2C3)cc(OC)c1` (centres unmarked) [Example 36, 4-((3-(3,5-Dimethoxybenzyl)bicyclo[2.2.1]hept-2-ene-2-carboxamido)methyl)benzoic Acid] showed a pKi [2] of 6.00.
In the case of `COc1cc(CC2C3CCC(C3)C2C(=O)NCc2ccc(C(=O)O)cc2)cc(OC)c1` (centres unmarked) [Example 38, 4-((3-(3,5-Dimethoxybenzyl)bicyclo[2.2.1]heptane-2-carboxamido)methyl)benzoic Acid], the pEC50 [1] was less than 5.00 and the pKi [2] was 6.40.
With `CN(Cc1ccc(C(=O)O)cc1)C(=O)C1=C(Cc2cccc(C(F)(F)F)c2)CCC1` [Example 7, 4-((N-Methyl-2-(3-(trifluoromethyl)benzyl)cyclopent-1-enecarboxamido)methyl)benzoic Acid] the pKi [2] was 5.80.
Compound `COc1ccc(CC2CCCCC2C(=O)NCc2ccc(C(=O)O)cc2)cc1OC` (single isomer, unassigned) [Example 23, 4-((2-(3,4-Dimethoxybenzyl)cyclohexanecarboxamido)methyl)benzoic Acid] has a pEC50 [1] of less than 5.00 and a pKi [2] of 8.10.
